The text below walks through data of ChEMBL document CHEMBL3112449, “Identification of a selective inhibitor of murine intestinal alkaline phosphatase (ML260) by concurrent ultra-high throughput screening against human and mouse isozymes” (Bioorg Med Chem Lett, 2014).

For experiment [1], the target named is Alkaline phosphatase, placental type (Homo sapiens, UniProt P05187). The experiment is described as follows: Inhibition of FLAG-tagged PLAP (unknown origin) expressed in African green monkey COS1 cells after 30 mins by chemiluminescence assay. Format: cell-based, COS-1.
Experiment [2] addresses T1, Alkaline phosphatase, tissue-nonspecific isozyme (Homo sapiens, UniProt P05186).
T1 sequence (P05186 whole entry): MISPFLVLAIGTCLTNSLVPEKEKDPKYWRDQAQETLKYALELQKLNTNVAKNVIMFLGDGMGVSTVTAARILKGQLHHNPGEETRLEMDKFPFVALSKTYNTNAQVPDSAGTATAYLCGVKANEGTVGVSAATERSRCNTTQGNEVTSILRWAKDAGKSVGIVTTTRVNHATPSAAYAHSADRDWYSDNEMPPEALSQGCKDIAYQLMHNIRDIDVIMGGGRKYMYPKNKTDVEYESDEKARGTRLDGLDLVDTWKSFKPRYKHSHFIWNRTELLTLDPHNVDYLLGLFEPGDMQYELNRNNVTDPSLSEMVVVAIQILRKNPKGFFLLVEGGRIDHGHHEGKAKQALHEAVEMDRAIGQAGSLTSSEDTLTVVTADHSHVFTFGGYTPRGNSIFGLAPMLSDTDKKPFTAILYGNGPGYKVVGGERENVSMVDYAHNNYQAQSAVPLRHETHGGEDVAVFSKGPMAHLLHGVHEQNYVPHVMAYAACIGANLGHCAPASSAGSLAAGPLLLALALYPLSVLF
The experiment is described as follows: Inhibition of FLAG-tagged TNAP (unknown origin) expressed in African green monkey COS1 cells after 30 mins by chemiluminescence assay. Format: cell-based, COS-1.

Experiment [3] has as its target T2, Intestinal-type alkaline phosphatase (Mus musculus, UniProt P24822). Description: Inhibition of mouse duodenal-specific FLAG-tagged IAP expressed in African green monkey COS1 cells after 30 mins by chemiluminescence assay. Format: cell-based, COS-1.
Experiment [4] concerns the target T3, Alkaline phosphatase, germ cell type (Mus musculus, UniProt P24823).
T3 sequence (P24823 whole entry): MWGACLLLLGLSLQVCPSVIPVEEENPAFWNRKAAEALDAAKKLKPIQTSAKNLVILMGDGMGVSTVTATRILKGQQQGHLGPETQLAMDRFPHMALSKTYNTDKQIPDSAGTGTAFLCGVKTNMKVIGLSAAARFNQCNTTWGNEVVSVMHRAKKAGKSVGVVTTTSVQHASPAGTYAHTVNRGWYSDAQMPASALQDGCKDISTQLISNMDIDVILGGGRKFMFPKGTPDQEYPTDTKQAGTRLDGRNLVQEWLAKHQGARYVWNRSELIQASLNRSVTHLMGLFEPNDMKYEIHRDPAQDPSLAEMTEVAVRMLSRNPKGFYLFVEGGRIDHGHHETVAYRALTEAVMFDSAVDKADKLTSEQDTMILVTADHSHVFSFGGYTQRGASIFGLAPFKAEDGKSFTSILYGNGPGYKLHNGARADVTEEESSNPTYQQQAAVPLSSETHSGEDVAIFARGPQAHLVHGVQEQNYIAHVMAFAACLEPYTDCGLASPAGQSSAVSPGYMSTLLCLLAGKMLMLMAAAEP
The experiment is described as follows: Inhibition of mouse EAP using p-nitrophenyl phosphate as substrate after 30 mins by chemiluminescence assay.

For experiment [5], the target named is T2, Intestinal-type alkaline phosphatase. The experiment is described as follows: Competitive inhibition of mouse duodenal-specific FLAG-tagged IAP expressed in African green monkey COS1 cells using p-nitrophenyl phosphate as substrate by double reciprocal plot analysis. The class given is cell-based, COS-1. Conditions: read-out: Ki(app).
A short description of experiment [6]: Inhibition of mouse gIAP using p-nitrophenyl phosphate as substrate after 30 mins by chemiluminescence assay.
Experiment [7] has as its target Intestinal-type alkaline phosphatase (Mus musculus) (UniProt P24822). Conditions: CHO-K1, 10 uM.
Description: Inhibition of mouse duodenal-specific IAP expressed in CHOK1 cells at 10 uM by ELF97 staining-based phase contrast microscopic analysis
The target of experiment [8] is T4, Intestinal-type alkaline phosphatase (Homo sapiens, UniProt P09923). Description: Inhibition of human FLAG-tagged IAP expressed in African green monkey COS1 cells using p-nitrophenyl phosphate as substrate after 30 mins by chemiluminescence assay. Format: cell-based, COS-1.
The target of experiment [9] is T2, Intestinal-type alkaline phosphatase. The experiment is described as follows: Inhibition of mouse duodenal-specific FLAG-tagged IAP expressed in African green monkey COS1 cells using p-nitrophenyl phosphate as substrate after 30 mins by chemiluminescence assay.
The target in experiment [10] is T4, Intestinal-type alkaline phosphatase. The experiment is described as follows: Inhibition of human FLAG-tagged IAP expressed in African green monkey COS1 cells after 30 mins by chemiluminescence assay. The class given is cell-based, COS-1.

The source made the active and inactive calls. The rule behind the calls is not given here.

Sequence of Alkaline phosphatase, placental type (P05187 whole entry): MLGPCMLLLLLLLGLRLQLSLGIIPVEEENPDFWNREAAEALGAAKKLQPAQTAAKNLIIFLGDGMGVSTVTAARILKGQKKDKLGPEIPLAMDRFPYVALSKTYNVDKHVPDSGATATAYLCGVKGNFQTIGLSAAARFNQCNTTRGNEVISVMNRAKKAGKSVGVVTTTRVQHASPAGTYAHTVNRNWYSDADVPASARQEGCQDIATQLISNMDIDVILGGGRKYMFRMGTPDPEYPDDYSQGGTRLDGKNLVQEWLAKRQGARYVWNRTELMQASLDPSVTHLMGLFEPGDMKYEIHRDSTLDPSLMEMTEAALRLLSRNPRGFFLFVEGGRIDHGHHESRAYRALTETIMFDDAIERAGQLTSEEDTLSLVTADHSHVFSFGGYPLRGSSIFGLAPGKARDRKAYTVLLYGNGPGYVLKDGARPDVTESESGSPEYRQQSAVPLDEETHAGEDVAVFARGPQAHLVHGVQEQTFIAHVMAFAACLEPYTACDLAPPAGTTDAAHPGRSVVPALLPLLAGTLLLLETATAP
T2 sequence (P24822 whole entry): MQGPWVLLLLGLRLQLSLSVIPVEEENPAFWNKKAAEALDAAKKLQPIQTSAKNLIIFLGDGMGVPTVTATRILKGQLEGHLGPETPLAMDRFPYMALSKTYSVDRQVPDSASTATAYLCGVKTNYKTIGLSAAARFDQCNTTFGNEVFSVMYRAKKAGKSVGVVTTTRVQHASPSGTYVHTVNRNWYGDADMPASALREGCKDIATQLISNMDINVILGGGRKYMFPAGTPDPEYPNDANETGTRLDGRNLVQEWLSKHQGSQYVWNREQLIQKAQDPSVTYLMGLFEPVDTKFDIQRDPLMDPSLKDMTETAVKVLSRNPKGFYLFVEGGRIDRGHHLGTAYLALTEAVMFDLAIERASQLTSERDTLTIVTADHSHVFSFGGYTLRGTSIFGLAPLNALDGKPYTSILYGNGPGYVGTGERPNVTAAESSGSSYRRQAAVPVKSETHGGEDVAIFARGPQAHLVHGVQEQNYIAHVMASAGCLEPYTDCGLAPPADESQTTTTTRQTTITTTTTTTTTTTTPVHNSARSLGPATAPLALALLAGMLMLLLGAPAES
T4 sequence (P09923 whole entry): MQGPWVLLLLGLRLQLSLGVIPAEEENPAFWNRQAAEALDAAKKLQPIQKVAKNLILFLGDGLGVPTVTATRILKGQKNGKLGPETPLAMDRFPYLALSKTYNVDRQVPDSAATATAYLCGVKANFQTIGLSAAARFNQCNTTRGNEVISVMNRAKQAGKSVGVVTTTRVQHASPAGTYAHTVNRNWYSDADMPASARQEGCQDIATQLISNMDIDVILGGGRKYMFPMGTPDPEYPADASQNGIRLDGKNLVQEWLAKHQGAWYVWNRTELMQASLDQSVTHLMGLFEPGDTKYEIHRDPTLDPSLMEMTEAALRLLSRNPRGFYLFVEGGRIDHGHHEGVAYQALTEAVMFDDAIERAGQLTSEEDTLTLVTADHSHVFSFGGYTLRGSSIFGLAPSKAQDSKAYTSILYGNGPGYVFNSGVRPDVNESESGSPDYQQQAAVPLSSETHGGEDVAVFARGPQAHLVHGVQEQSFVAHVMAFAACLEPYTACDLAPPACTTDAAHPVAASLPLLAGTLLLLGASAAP
Sequence of Intestinal-type alkaline phosphatase (Mus musculus) (P24822 whole entry): as the sequence (P24822 whole entry) above

Usually IC50 stands for the point on the concentration scale where inhibition reaches its midpoint. For the compound `Cc1ccc(C)c(NC(=O)NS(=O)(=O)c2ccc3[nH]c(=O)oc3c2)c1`, the IC50 in experiment [1], in experiment [2] and in experiment [3] was more than 100 µM throughout.

As for `Cc1ccc(C)c(NC(=O)CNS(=O)(=O)c2ccc3[nH]c(=O)oc3c2)c1`, the IC50 in [4] is 21.1 µM; in experiment [6] it was 21 µM; in experiment [1], more than 100 µM; in experiment [8], 27.6 µM; in experiment [2] it was 35 µM; in experiment [9], 3.8 µM. 0.54 µM corresponded to half-maximal inhibition in experiment [3] (IC50). In addition, in experiment [5], the Ki amounted to 3.2 µM. The inhibition entry in experiment [7] was “Active”.

`N#Cc1cccc(NC(=O)NS(=O)(=O)c2ccc3[nH]c(=O)oc3c2)c1`: the IC50 in experiment [1], in experiment [2] and in [3] was more than 100 µM in each case.

Regarding `COc1ccc(NC(=O)NS(=O)(=O)c2ccc3[nH]c(=O)oc3c2)cc1OC`, the 50% inhibitory concentration (IC50) in [1], in [2] and in experiment [3] was more than 100 µM in each case.

On to `O=C(CCNS(=O)(=O)c1ccc2[nH]c(=O)oc2c1)Nc1ccc2c(c1)OCO2`, for which the IC50 in experiment [1] was more than 100 µM; in [2], more than 100 µM; in [3], 12 µM.

Turning to `O=C(CNS(=O)(=O)c1ccc2[nH]c(=O)oc2c1)NCc1ccc2c(c1)OCO2`, the IC50 in [1], in experiment [2] and in experiment [3] was more than 100 µM each time.

For the compound `N#Cc1ccc(NC(=O)NS(=O)(=O)c2ccc3[nH]c(=O)oc3c2)cc1`, the IC50 in experiment [1], in [2] and in [3] was more than 100 µM each time.

On to `O=C(CCNS(=O)(=O)c1ccc2[nH]c(=O)oc2c1)NCCCc1ccc2c(c1)OCO2`, for which the IC50 in experiment [1] is more than 100 µM; in experiment [2], more than 100 µM; in experiment [3], 44 µM.

`COc1cccc(CNC(=O)NS(=O)(=O)c2ccc3[nH]c(=O)oc3c2)c1`: the IC50 is more than 100 µM in experiment [1], more than 100 µM in experiment [2] and 40 µM in experiment [3].

Regarding `O=C(Nc1ccc2c(c1)OCO2)NS(=O)(=O)c1ccc2[nH]c(=O)oc2c1`, the IC50 in experiment [1], in experiment [2] and in experiment [3] was more than 100 µM each time.

With `N#Cc1cccc(NC(=O)CCNS(=O)(=O)c2ccc3nc(O)oc3c2)c1`, the IC50 was more than 100 µM in experiment [1], more than 100 µM in experiment [2], 1.82 µM in experiment [3] and more than 100 µM in experiment [10].

As for `COc1ccc(CNC(=O)NS(=O)(=O)c2ccc3[nH]c(=O)oc3c2)c(OC)c1`, the IC50 is more than 100 µM in experiment [1], more than 100 µM in [2] and 89 µM in [3].

`O=C(CNS(=O)(=O)c1ccc2[nH]c(=O)oc2c1)NCCc1ccc2c(c1)OCO2`: the IC50 in experiment [1], in [2] and in experiment [3] was more than 100 µM in each case.

For `O=C(CCNS(=O)(=O)c1ccc2[nH]c(=O)oc2c1)NCCc1ccc2c(c1)OCO2`, the results for the IC50 in [1], in experiment [2] and in experiment [3] were more than 100 µM, more than 100 µM and 19 µM, respectively.

Take `O=C(CCNS(=O)(=O)c1ccc2[nH]c(=O)oc2c1)NCc1ccc2c(c1)OCO2`: the IC50 is more than 100 µM in [1], more than 100 µM in experiment [2] and 2.6 µM in experiment [3].

On to `O=C(CCCNS(=O)(=O)c1ccc2[nH]c(=O)oc2c1)NCc1ccc2c(c1)OCO2`, for which the IC50 in [1] was more than 100 µM; in [2] it was more than 100 µM; in experiment [3] it was 45 µM.

Take `O=C(NCCc1ccc2c(c1)OCO2)NS(=O)(=O)c1ccc2[nH]c(=O)oc2c1`: the IC50 in experiment [1], in experiment [2] and in experiment [3] was more than 100 µM each time.
